Source: publication PMC6428247, “Potent inhibitors of equine steroid isomerase EcaGST A3-3” (PLoS ONE, 2019)
Several values for one entry are separate records, joined by “and”; a condition that tells them apart may be missing. Equal values may be shown once. Where a name gives a salt, the structure may show the parent alone.

Tests used:
EcaGST A3-3 [1] = molecular target: T1, EcaGST A3-3 (Equus caballus, UniProt M9ZT87); test: Inhibition of EcaGST A3-3 activity, GSH conjugation with CDNB; type: biochemical, Equus ferus caballus; details: for inhibition at 10 µM: read-out: Inhibition (%) of EcaGST A3-3; for IC50: 100 mM sodium phosphate pH 6.5, 30°C, read-out: IC50 EcaGST A3-3, substrate CDNB
T1 sequence (M9ZT87 entry or part of it): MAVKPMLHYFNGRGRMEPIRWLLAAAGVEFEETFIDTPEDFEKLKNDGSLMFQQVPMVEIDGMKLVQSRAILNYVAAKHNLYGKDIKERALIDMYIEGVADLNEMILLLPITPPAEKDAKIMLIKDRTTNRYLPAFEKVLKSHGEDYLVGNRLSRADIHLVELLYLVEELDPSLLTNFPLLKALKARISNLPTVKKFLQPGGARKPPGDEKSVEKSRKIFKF
Protocol: The final solvent concentration in the reaction system was kept at 5% (v/v) as a maximum.
(§1) The conjugation of GSH with the electrophilic substrate CDNB was used as a biochemical assay for general activity measurements. Screening of the US Drug library for inhibition was done in triplicates in 96-well plates in a Thermo Scientific Multiskan GO spectrophotometer. The conjugation activity at 30°C was monitored at 340 nm for 1 min in 0.1 M sodium phosphate buffer at pH 6.5 and 10 μM inhibitor concentration in a final volume of 300 μL. Initial concentrations of GSH and CDNB were 1 mM.
Assay conditions for inhibition measurements of enzyme activity with CDNB were the following: EcaGST A3-3 15 nM, initial concentrations of GSH and CDNB 1 mM, inhibitor concentrations varying from 0.029 μM to 15 μM, in 100 mM Na2HPO4/NaH2PO4 at pH 6.5.
The reactions were followed spectrophotometrically for 1 min at 30°C using a Shimadzu UV-2501 PC spectrophotometer (Shimadzu Inc.). All experiments included triplicate measurements in each data point.
The equation for competitive inhibition fitted by non-linear regression was v=Vmax[S]/KM(1+[I]/Ki)+[S] where [S] is the substrate concentrations and [I] is the inhibitor concentration.

EcaGST A3-3 [2] = molecular target: T1, EcaGST A3-3; test: Inhibition of EcaGST A3-3 steroid double-bond isomerase activity with Δ^5-AD; type: biochemical, Equus ferus caballus; details: for IC50 EcaGST A3-3, substrate Δ^5-AD: 0.1 mM Δ^5-AD, 25 mM sodium phosphate pH 8.0, 30°C
HsaGST A3-3 = molecular target: T2, HsaGST A3-3 (Homo sapiens, UniProt Q16772); test: Inhibition of HsaGST A3-3 CDNB activity; type: biochemical; details: 1 mM GSH, 1 mM CDNB, pH 6.5, 30°C; for IC50: CDNB activity
T2 construct: made in house
T2 sequence (Q16772 1-222): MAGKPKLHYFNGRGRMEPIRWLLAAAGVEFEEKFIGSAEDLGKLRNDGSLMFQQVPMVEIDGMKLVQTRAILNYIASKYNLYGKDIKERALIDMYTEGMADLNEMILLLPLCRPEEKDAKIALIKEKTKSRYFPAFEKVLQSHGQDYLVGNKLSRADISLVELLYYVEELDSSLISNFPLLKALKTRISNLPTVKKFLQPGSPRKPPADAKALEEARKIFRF
Protocol: (§2) EcaGST A3-3 [10], HsaGST A3-3 [12] and HsaGST M2-2 [13] were cloned, expressed and purified as described previously. Protein concentration was determined by means of the Bradford assay.
as §1
(§3) For understanding the effects of pharmacological interventions based on GST inhibitors, it is important to know the selectivity among the numerous GSTs. […] All values were determined with CDNB, which is a common substrate for all the enzymes.

HsaGST M2-2 = molecular target: T3, HsaGST M2-2 (Homo sapiens, UniProt P28161); test: Inhibition of HsaGST M2-2 CDNB activity; type: biochemical; details: 1 mM GSH, 1 mM CDNB, pH 6.5, 30°C; for IC50: CDNB activity, read-out: IC50 HsaGST M2-2
T3 construct: made in house
T3 sequence (P28161 1-218): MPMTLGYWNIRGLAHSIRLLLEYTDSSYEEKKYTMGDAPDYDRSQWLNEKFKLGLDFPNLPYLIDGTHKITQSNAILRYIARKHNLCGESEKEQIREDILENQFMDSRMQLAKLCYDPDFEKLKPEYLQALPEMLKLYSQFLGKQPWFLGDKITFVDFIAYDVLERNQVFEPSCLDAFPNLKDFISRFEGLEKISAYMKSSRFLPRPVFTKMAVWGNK
Protocol: as §2, §1, §3

HsaGST P1-1 = test system: HsaGST P1-1; set-up: method as in PMID 23769903; details: 3.3 μM inhibitor, 1 mM GSH, 1 mM CDNB, pH 6.5, 30°C; cited from earlier work
HsaGST S1-1 = test system: HsaGST S1-1; set-up: method as in PMID 25603235; details: 1 mM GSH, 1 mM CDNB, pH 6.5, 30°C, cited from earlier work; for Inhibition (%) of HsaGST S1-1: 10 μM inhibitor
[3] = 10 μM inhibitor, 1 mM GSH, 1 mM CDNB, sodium phosphate pH 6.5, 30°C

Molecule `CCN(CCCc1ccccc1)CCCc1ccccc1` [Alverine citrate] has an inhibition at 10 µM (EcaGST A3-3 [1]; [3]) of 31 ± 17%.
In the case of `NCC(=O)CCC(=O)O` [Aminolevulinic acid hydrochloride], the inhibition at 10 µM (EcaGST A3-3 [1]; [3]) is reported as 32 ± 11%.
For `O=C1c2c(O)cccc2Cc2cccc(O)c21` [Anthralin], the inhibition at 10 µM (EcaGST A3-3 [1]; [3]) was 96 ± 1.8%, the IC50 (EcaGST A3-3 [1]; 1 mM CDNB, 1 mM GSH) was 2100 ± 270 nM and the “Hill coefficient, CDNB inhibition” value (EcaGST A3-3 [1]; dose-response curve, substrate CDNB, mean ± SD) was 2.0±0.43. For the same molecule, the IC50 (EcaGST A3-3 [2]) was 85 ± 4.8 nM, the “IC50 EcaGST A3-3, substrate Δ^5-AD” value (EcaGST A3-3 [2]; 1 mM GSH) was “submicromolar range” and the Ki (EcaGST A3-3 [2]; Ki, EcaGST A3-3, substrate Δ^5-AD, Δ^5-AD varied, 1 mM GSH, 0.09 μM inhibitor) was 90 nM and 93 nM. For the same molecule, the “Hill coefficient, Δ^5-AD inhibition” value (EcaGST A3-3 [2]; dose-response curve, substrate Δ^5-AD, mean ± SD) was 1.9±0.19, the “Times more potent with Δ^5-AD as substrate than with CDNB” value (EcaGST A3-3 [2]; ratio of IC50 values CDNB vs Δ^5-AD, EcaGST A3-3) was “approximately 25 times” and the “Inhibition modality, substrate Δ^5-AD” value (EcaGST A3-3 [2]; Δ^5-AD varied, 1 mM GSH) was “Competitive”. It also gave an IC50 (HsaGST A3-3) of 720 nM, an inhibition at 10 µM (HsaGST A3-3; pH 6.5, 10 μM inhibitor, read-out: Inhibition (%) of HsaGST A3-3) of 88% and an inhibition at 10 µM (HsaGST M2-2; 10 μM inhibitor, read-out: Inhibition (%) of HsaGST M2-2) of 80%. The “Inhibition (%) of HsaGST P1-1” value (HsaGST P1-1) was 22%, the “Inhibition (%) of HsaGST S1-1” value (HsaGST S1-1) was 84% and the IC50 (HsaGST S1-1; CDNB activity) was 24000 nM.
For `OC[C@H]1O[C@H]([S-])[C@H](O)[C@@H](O)[C@@H]1O.[Au+]` [Aurothioglucose], the “Inhibition (%) of EcaGST A3-3” value (EcaGST A3-3 [1]; [3]) was 78 ± 28%, the IC50 (EcaGST A3-3 [1]; 1 mM CDNB, 1 mM GSH) was 850 ± 120 nM and the “IC50 EcaGST A3-3, substrate Δ^5-AD” value (EcaGST A3-3 [2]; 1 mM GSH) was “Anomalous curve”. The “Inhibition (%) of HsaGST A3-3” value (HsaGST A3-3; 10 μM inhibitor) was 96%, the IC50 (HsaGST A3-3) was 910 nM and the “Inhibition (%) of HsaGST M2-2” value (HsaGST M2-2; 10 μM inhibitor) was 85%. The IC50 (HsaGST M2-2) was 12000 nM, the “Inhibition (%) of HsaGST P1-1” value (HsaGST P1-1) was < 4% and the “Inhibition (%) of HsaGST S1-1” value (HsaGST S1-1) was 24%.
Molecule `O=C(Nc1ccc(C(=O)O)c(O)c1)c1ccccc1` [Benzoylpas] has an IC50 (HsaGST M2-2) of 2500 nM.
In the case of `O=[N+]([O-])c1ccc(Cl)c([N+](=O)[O-])c1` [CDNB, 1-chloro-2,4-dinitrobenzene], the Km (EcaGST A3-3 [1]; read-out: Km of substrate CDNB with EcaGST A3-3, 1 mM GSH, fitted with and without ethacrynic acid) is reported as 1260 ± 82 µM.
`CCCCCCCCCCCCCCCC(=O)OC[C@@H](NC(=O)C(Cl)Cl)[C@H](O)c1ccc([N+](=O)[O-])cc1` [Chloramphenicol palmitate] showed an inhibition at 10 µM (EcaGST A3-3 [1]; [3]) of 40 ± 1%.
For `CC[C@H]1OC(=O)[C@H](C)[C@@H](O[C@H]2C[C@@](C)(OC)[C@@H](O)[C@H](C)O2)[C@H](C)[C@@H](O[C@@H]2O[C@H](C)C[C@H](N(C)C)[C@H]2O)[C@](C)(OC)C[C@@H](C)C(=O)[C@H](C)[C@@H](O)[C@]1(C)O` [Clarithromycin], the inhibition at 10 µM (EcaGST A3-3 [1]; [3]) was 36 ± 7%.
`Oc1c(I)cc(Cl)c2cccnc12` [Clioquinol] showed an inhibition at 10 µM (EcaGST A3-3 [1]; [3]) of 64 ± 21%.
In the case of `CC(C)/N=c1\cc2n(-c3ccc(Cl)cc3)c3ccccc3nc-2cc1Nc1ccc(Cl)cc1` [Clofazimine], the inhibition at 10 µM (EcaGST A3-3 [1]; [3]) is reported as 52 ± 14%.
In the case of `C[C@]12CC[C@@H]3c4ccc(OS(=O)(=O)O)cc4CC[C@H]3[C@@H]1CCC2=O` [Estropipate], the inhibition at 10 µM (EcaGST A3-3 [1]; [3]) is reported as 37 ± 23%.
Molecule `C=C1C[C@@H]2[C@H](CC[C@]3(C)C(=O)CC[C@@H]23)[C@@]2(C)C=CC(=O)C=C12` [Exemestane] has an inhibition at 10 µM (EcaGST A3-3 [1]; [3]) of 41 ± 12%.
`CC(C)n1c(/C=C/C(O)CC(O)CC(=O)O)c(-c2ccc(F)cc2)c2ccccc21` (stereo not shown) [Fluvastatin sodium] gave an inhibition at 10 µM (EcaGST A3-3 [1]; [3]) of 31 ± 24%.
For `OCCOCCN1CCN(C(c2ccccc2)c2ccc(Cl)cc2)CC1` (stereo not shown) [Hydroxyzine pamoate], the inhibition at 10 µM (EcaGST A3-3 [1]; [3]) was ≤ 30% and the IC50 (HsaGST M2-2) was 760 nM.
